Literature values as cited in patent US11324962B2, “Magnetic field enhancement of chemotherapy for tumor treatment” (priority 2018, dated 2022).

Settings: in vivo

Structure (SMILES): O=C1[O][Pt]2([NH][C@@H]3CCCC[C@H]3[NH]2)[O]C1=O [oxaliplatin]
- biological half-life: 25 minutes
